Reference: patent US10683293B2, “Optionally fused heterocyclyl-substituted derivatives of pyrimidine useful for the treatment of inflammatory, metabolic, oncologic and autoimmune diseases” (NUEVOLUTION A/S, priority 2014, dated 2020)
pIC50: −log10 of the molar value.

Legend:
[1] = target: T1, ligand binding domain of human RORγ (Homo sapiens, UniProt P51449); assay: RORγ Reporter Assay (Gal4); assay type: cell-based; conditions: for inhibition at 1 µM: HEK-293T, 1 μM test compound, HEK293t RORγ reporter cells, 24 hour, read-out: Gal4 activity range @ 1 μM (% inhibition); for Gal4 activity range @ 0.1 μM (% inhibition): RORγ Reporter Assay (Gal4), HEK293t reporter cells, compound at 0.1 μM, values are activity range bounds
T1 construct: host or cells: HEK293t
T1 sequence (P51449 269-508 limits assumed): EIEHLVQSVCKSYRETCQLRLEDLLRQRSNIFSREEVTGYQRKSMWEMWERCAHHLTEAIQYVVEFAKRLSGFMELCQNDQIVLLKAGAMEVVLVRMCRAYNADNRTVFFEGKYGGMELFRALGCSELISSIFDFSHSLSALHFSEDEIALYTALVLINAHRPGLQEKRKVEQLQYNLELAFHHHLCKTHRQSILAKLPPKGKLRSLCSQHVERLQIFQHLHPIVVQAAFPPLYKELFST
Experimental: The activity of the compounds was evaluated using a Fluorescence Polarization (FP) Assay and, RORγ Reporter assay (also referred to as Gal4 assay). The FP assay is an in vitro assay monitoring binding within the ligand binding pocket. The RORγ and the Th17 assays (another suitable assay) are both cell-based assays monitoring functional activity of the compound assayed.
RORγ Reporter Assay (Gal4)
Cell-based RORγ functional assays were performed using a commercially available assay product (INDIGO Biosciences, State College, Pa., USA; product # IB04001). The RORγ reporter cells are HEK293t cells transfected with one vector that provides high level constitutive expression of a hybrid protein comprised of the yeast Gal4-DNA binding domain fused to the ligand binding domain of human RORγ, and a second vector comprising the firefly luciferase cDNA functionally linked to the upstream activation sequence (UAS) of yeast Gal4. A suspension of RORγ Reporter Cells was prepared using the protocol and culture medium provided in the kit product, and 100 μl of the Reporter Cell suspension was then dispensed into wells of a white, collagen-treated, 96-well assay plate. Concentrated stocks of test compounds were prepared in DMSO, then further diluted using media provided in the kit to generate ‘2×-concentration’ treatment media. 100 μl of medium for each respective treatment concentration dispensed into triplicate assay wells, thereby combining with the reporter cells. All media formulations contained 10% charcoal stripped Fetal Bovine Serum, but are otherwise proprietary to INDIGO Biosciences. Final treatment concentrations for each test compound were 1,000 nM and 100 nM, each with 0.1% residual DMSO. Separate control treatments were media supplemented with vehicle only (0.1% DMSO) to determine the constitutive level of RORγ activity in the reporter cells, and the reference inverse-agonist ursolic acid (f.c. 6,000 nM to 8.2 nM in 3-fold decrements) to establish a positive control inverse-agonist dose response. Assay plates were placed in a 37° C., 5% CO2, 85% humidity incubator for 24 hour. Treatment media were then discarded, 100 μl of luciferase detection reagent was added to each well, and relative light units (RLUs) were quantified from each assay well using a plate reading luminometer. Values of average RLU+/−standard deviation were computed for all treatment sets, followed by the calculations of fold-reduction: [Average RLUVehicle/Average RLUTest Cmpd]. Percent-reduction of RORγ activity in response to respective test compound treatments was calculated: [100*(1−[Ave RLUTest Cmpd/Ave RLUVehicle)] where the theoretical minimum reduction (0% reduction) derives from Vehicle treatment only, no treatment compound. In some aspects it may be of interest to provide compounds with selective modulation of RORγ for example compounds that are selective to RORγ over RORα, compounds that are selective for RORγ versus RORPβ, and compounds that are selective for RORγ versus BOTH RORα and RORPβ. It may also be of interest to provide compounds that are selective for RORγ versus further nuclear hormone receptors such as CAR1, FXR, GR, LXRα, LXRβ, PPARα, PXR, RARα, RXRα, TRα, VDR. It is apparent to those skilled in the art that these nuclear hormone receptors are merely examples, and that selectivity against other nuclear receptors may also be of interest. It may for example be of interest to provide compounds that modulate RORγ and one or more further nuclear hormone receptors, as well as compounds that modulate both RORγ and RORα, or RORγ and RORβ. It may also be of interest to provide compounds that modulate RORγ and BOTH RORα and RORP, as well as compounds that modulate both RORγ and one or more further nuclear hormone receptors such as CAR1, FXR, GR, LXRα, LXRβ, PPARα, PXR, RARα, RXRα, TRα, VDR. It is apparent to those skilled in the art that these nuclear hormone receptors are merely examples, and that modulation of even other nuclear receptors may also be of interest. […]

[2] = target: T2, human RORγt (Ligand Binding Domain) (Homo sapiens, UniProt P51449); assay: Fluorescence Polarization (FP) Assay; conditions: 100 nM human RORγt LBD, 25 nM TAMRA probe, values are activity range bounds
T2 construct: purchased Crelux (Planegg, Germany) batch no PC5032-1
T2 sequence (P51449 269-508 limits assumed): T1 sequence (P51449 269-508 limits assumed)
Procedure, shortened: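 Binding to the RORγt ligand-binding domain was followed by FP. Displacement of a TAMRA-tagged RORγt ligand tracer (910 g/mol) was measured, with DMSO-only wells as negative control.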

With `CC(C)c1ccc(CN(c2ncnc(NCc3ccc(CC(N)=O)cc3)c2F)C2CC2)cc1` [Example A53, 2-[4-[[[6-[cyclopropyl-[(4-isopropylphenyl)methyl]amino]-5-fluoro-pyrimidin-4-yl]amino]methyl]phenyl]acetamide] the inhibition at 1 µM [1] was greater than 80%, the “Gal4 activity range @ 0.1 μM (% inhibition)” value [1] was greater than 80 % inhibition and the pIC50 [2] was greater than 6.30.

For `CN(Cc1ccc(-n2cccn2)cc1)c1ncnc(NCc2ccc(CC(N)=O)cc2)c1F` [Example A52, 2-[4-[[[5-fluoro-6-[methyl-[(4-pyrazol-1-ylphenyl)methyl]amino]pyrimidin-4-yl]amino]methyl]phenyl]acetamide], the inhibition at 1 µM [1] was greater than 50%, the “Gal4 activity range @ 0.1 μM (% inhibition)” value [1] was greater than 0 % inhibition and the pIC50 [2] was greater than 6.30.

`CS(=O)(=O)N1CCC2(CC1)CC2Nc1ncnc(N(Cc2ccc(C(F)(F)F)cc2)C2CC2)c1F` (stereo not drawn) [Example A169, N6-cyclopropyl-5-fluoro-N4-(6-methylsulfonyl-6-azaspiro[2.5]octan-2-yl)-N6-[[4-(trifluoromethyl)phenyl]methyl] pyrimidine-4,6-diamine] was tested, and the inhibition at 1 µM [1] was greater than 80%, the “Gal4 activity range @ 0.1 μM (% inhibition)” value [1] was greater than 80 % inhibition and the pIC50 [2] was greater than 6.30.

With `NC(=O)Cc1ccc(CNc2ncnc(N(Cc3ccnc(C(F)(F)F)c3)C3CC3)c2F)cc1` [Example A170, 2-[4-[[[6-[cyclopropyl-[[2-(trifluoromethyl)-4-pyridyl]methyl]amino]-5-fluoro-pyrimidin-4-yl]amino]methyl]phenyl]acetamide] the inhibition at 1 µM [1] was greater than 50%, the “Gal4 activity range @ 0.1 μM (% inhibition)” value [1] was greater than 20 % inhibition and the pIC50 [2] was greater than 6.30.

`CC(C)c1ccc(CN(c2ncnc(NCc3ccc(CC(N)=O)cc3)c2F)C2CC2)cn1` [Example A97, 2-[4-[[[6-[cyclopropyl-[(6-isopropyl-3-pyridyl)methyl]amino]-5-fluoro-pyrimidin-4-yl]amino]methyl]phenyl]acetamide] was tested, and the inhibition at 1 µM [1] was greater than 80%, the “Gal4 activity range @ 0.1 μM (% inhibition)” value [1] was greater than 50 % inhibition and the pIC50 [2] was greater than 6.30.

`NC(=O)Cc1ccc(CNc2ncnc(N(Cc3ccccc3Cl)C3CC3)c2F)cc1` [Example A66, 2-[4-[[[6-[(2-chlorophenyl)methyl-cyclopropyl-amino]-5-fluoro-pyrimidin-4-yl]amino]methyl]phenyl]acetamide] was tested, and the inhibition at 1 µM [1] was greater than 50%, the “Gal4 activity range @ 0.1 μM (% inhibition)” value [1] was greater than 20 % inhibition and the pIC50 [2] was greater than 6.30.

With `FCC1(CNc2ncnc(N(Cc3ccc(C(F)(F)F)cc3)C3CC3)c2F)CCOCC1` [Example A75, N4-cyclopropyl-5-fluoro-N6-[[4-(fluoromethyl)tetrahydropyran-4-yl]methyl]-N4-[[4-(trifluoromethyl)phenyl]methyl] pyrimidine-4,6-diamine] the inhibition at 1 µM [1] was greater than 80%, the “Gal4 activity range @ 0.1 μM (% inhibition)” value [1] was greater than 80 % inhibition and the pIC50 [2] was greater than 6.30.

For `CS(=O)(=O)NCC1(CNc2ncnc(N(Cc3ccc(C(F)(F)F)cc3)C3CC3)c2F)CCOCC1` [Example A63, N-[[4-[[[6-[cyclopropyl-[[4-(trifluoromethyl)phenyl]methyl]amino]-5-fluoro-pyrimidin-4-yl]amino]methyl]tetrahydropyran-4-yl]methyl]methanesulfonamide], the inhibition at 1 µM [1] was greater than 80%, the “Gal4 activity range @ 0.1 μM (% inhibition)” value [1] was greater than 80 % inhibition and the pIC50 [2] was greater than 6.30.

For `NC(=O)Cc1ccc(Cn2ccc3c(N(Cc4ccc(C(F)(F)F)cc4)C4CC4)ncnc32)cc1` [Example I1, 2-(4-((4-(cyclopropyl (4-(trifluoromethyl)benzyl)amino)-7H-pyrrolo[2,3-d]pyrimidin-7-yl)methyl)phenyl)acetamide], the inhibition at 1 µM [1] was greater than 80%, the “Gal4 activity range @ 0.1 μM (% inhibition)” value [1] was greater than 80 % inhibition and the pIC50 [2] was greater than 6.30.

With `NC(=O)Cc1ccc(CNc2ncnc(N(Cc3ccc(C(F)(F)F)cc3)C3CC3)c2F)cn1` [Example A78, 2-[5-[[[6-[cyclopropyl-[[4-(trifluoromethyl)phenyl]methyl]amino]-5-fluoro-pyrimidin-4-yl]amino]methyl]-2-pyridyl]acetamide] the inhibition at 1 µM [1] was greater than 80%, the “Gal4 activity range @ 0.1 μM (% inhibition)” value [1] was greater than 50 % inhibition and the pIC50 [2] was greater than 6.30.

Work on `COc1ccc(CN(C)c2ncnc(N(Cc3ccc(C(F)(F)F)cc3)C3CC3)c2F)cn1` [Example A24, N6-cyclopropyl-5-fluoro-N4-[(6-methoxy-3-pyridyl)methyl]-N4-methyl-N6-[[4-(trifluoromethyl)phenyl]methyl] pyrimidine-4,6-diamine] yielded a pIC50 [2] greater than 6.30.

In the case of `O=S(=O)(Nc1ccc(CNc2ncnc(N(Cc3ccc(C(F)(F)F)cn3)C3CC3)c2F)cc1)C(F)F` [Example A106, N-[4-[[[6-[cyclopropyl-[[5-(trifluoromethyl)-2-pyridyl]methyl]amino]-5-fluoro-pyrimidin-4-yl]amino]methyl]phenyl]-1,1-difluoro-methanesulfonamide], the pIC50 [2] was greater than 5.00.

`O=C(O)CC1CCC(CNc2ncnc(N(Cc3ccc(C(F)(F)F)cc3)C3CC3)c2F)CC1` (stereo not drawn) [Example A36, 2-[4-[[[6-[cyclopropyl-[[4-(trifluoromethyl)phenyl]methyl]amino]-5-fluoro-pyrimidin-4-yl]amino]methyl]cyclohexyl]acetic acid] gave a pIC50 [2] greater than 6.30.

Work on `CN(Cc1ccc(-n2cccn2)cc1)c1ncnc(NCC2(CCO)CCOCC2)c1F` [Example A132, 2-[4-[[[5-fluoro-6-[methyl-[(4-pyrazol-1-ylphenyl)methyl]amino]pyrimidin-4-yl]amino]methyl]tetrahydropyran-4-yl]ethanol] yielded a pIC50 [2] greater than 5.00.

`COC1(CNc2ncnc(N(Cc3ccc(C(F)(F)F)cc3)C3CC3)c2F)CCOCC1` [Example A29, N6-cyclopropyl-5-fluoro-N4-[(4-methoxytetrahydropyran-4-yl)methyl]-N6-[[4-(trifluoromethyl)phenyl]methyl] pyrimidine-4,6-diamine] was tested, and the pIC50 [2] was greater than 6.30.

Work on `NC(=O)Cc1ccc(CNc2ncnc(N(Cc3ccc(C(F)(F)F)nc3)C3CC3)c2F)cn1` [Example A112, 2-[5-[[[6-[cyclopropyl-[[6-(trifluoromethyl)-3-pyridyl]methyl]amino]-5-fluoro-pyrimidin-4-yl]amino]methyl]-2-pyridyl]acetamide] yielded a pIC50 [2] greater than 5.70.

In the case of `CS(=O)(=O)CC1(CNc2ncnc(N(Cc3ccc(C(F)(F)F)cc3)C3CC3)c2F)CCOCC1` [Example A31, N6-cyclopropyl-5-fluoro-N4-[[4-(methylsulfonylmethyl)tetrahydro-pyran-4-yl]methyl]-N6-[[4-(trifluoromethyl)phenyl]methyl] pyrimidine-4,6-diamine], the pIC50 [2] was greater than 6.30.

`COc1ccc(CN(C)c2ncnc(NCc3ccc(CC(N)=O)cc3)c2F)c(OC)c1` [Example A139, 2-[4-[[[6-[(2,4-dimethoxyphenyl)methyl-methyl-amino]-5-fluoro-pyrimidin-4-yl]amino]methyl]phenyl]acetamide] was tested, and the pIC50 [2] was greater than 5.70.

Work on `CN(Cc1ccc2ccccc2c1)c1ncnc(NCc2ccc(CC(N)=O)cc2)c1F` [Example A121, 2-[4-[[[5-fluoro-6-[methyl(2-naphthylmethyl)amino]pyrimidin-4-yl]amino]methyl]phenyl]acetamide] yielded a pIC50 [2] greater than 6.30.
